Test results from PubChem BioAssay AID248 (DTP/NCI, 2004).
Several values for one entry are separate records, joined by “and”; a condition that tells them apart may be missing. Equal values may be shown once. Toxic doses and inconclusive results are not listed. Cut-off read from the data, not from the text of the source: active = T/C of 150% or more; inactive = T/C below 125%.

Tested on: L1210 leukemia ip in BDF1 mice, survival T/C
Experiment: NCI In Vivo Anticancer Drug Screen. Data for tumor model L1210 Leukemia (intraperitoneal) in B6D2F1 (BDF1) mice
Conditions: endpoint: mean survival time, higher = longer survival
In short: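 Mice bearing the transplanted tumor received compound or vehicle. Survival of the treated group was divided by that of the vehicle-treated control group to give the ratio.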

[1] = dose: 100.0 mg/kg/injection, schedule: Q01DX001 (ip), vehicle: saline with Tween-80
[2] = dose: 200.0 mg/kg/injection, schedule: Q01DX001 (ip), vehicle: saline with Tween-80
[3] = dose: 400.0 mg/kg/injection, schedule: Q01DX001 (ip), vehicle: saline with Tween-80
[4] = dose: 100.0 mg/kg/injection, schedule: Q04DX003 (ip), vehicle: Klucel (hydroxypropylcellulose) (HPC)
[5] = dose: 200.0 mg/kg/injection, schedule: Q04DX003 (ip), vehicle: Klucel (hydroxypropylcellulose) (HPC)
[6] = dose: 100.0 mg/kg/injection, schedule: Q04DX003 (ip), vehicle: saline with Tween-80
[7] = dose: 200.0 mg/kg/injection, schedule: Q04DX003 (ip), vehicle: saline with Tween-80
[8] = dose: 400.0 mg/kg/injection, schedule: Q04DX003 (ip), vehicle: saline with Tween-80
[9] = dose: 100.0 mg/kg/injection, schedule: Q01DX009 (ip), vehicle: Klucel (hydroxypropylcellulose) (HPC)
[10] = dose: 200.0 mg/kg/injection, schedule: Q01DX009 (ip), vehicle: Klucel (hydroxypropylcellulose) (HPC)
[11] = dose: 400.0 mg/kg/injection, schedule: Q04DX003 (ip), vehicle: Klucel (hydroxypropylcellulose) (HPC)
[12] = dose: 12.5 mg/kg/injection, schedule: Q04DX003 (ip), vehicle: saline
[13] = dose: 25.0 mg/kg/injection, schedule: Q04DX003 (ip), vehicle: saline
[14] = dose: 100.0 mg/kg/injection, schedule: Q01DX001 (ip), vehicle: saline
[15] = dose: 100.0 mg/kg/injection, schedule: Q01DX009 (ip), vehicle: saline with Tween-80
[16] = dose: 200.0 mg/kg/injection, schedule: Q01DX009 (ip), vehicle: saline with Tween-80
[17] = dose: 50.0 mg/kg/injection, schedule: Q01DX001 (ip), vehicle: saline
[18] = dose: 200.0 mg/kg/injection, schedule: Q01DX001 (ip), vehicle: saline
[19] = dose: 400.0 mg/kg/injection, schedule: Q01DX001 (ip), vehicle: saline
[20] = dose: 50.0 mg/kg/injection, schedule: Q01DX009 (ip), vehicle: saline

Measured: T/C

COc1cc2c3c(c1O)-c1c(ccc(OC)c1OC)CC3N(C)CC2 (stereo not drawn)
inactive: [1] 103 % of control | [2] 102 % of control | [3] 102 % of control

O=c1cc(S(=O)(=O)c2ccccc2)[nH]c(=O)[nH]1
inactive: [4] 97 % of control | [5] 101 % of control

CCN=C(N)SCC
inactive: dose: 100.0 mg/kg/injection, schedule: Q04DX002 (ip), vehicle: saline 95 % of control | dose: 200.0 mg/kg/injection, schedule: Q04DX002 (ip), vehicle: saline 95 % of control

CN(C)C(=O)Sc1cccc([N+](=O)[O-])c1
inactive: [6] 109 % of control | [7] 111 % of control | [8] 103 % of control

O=P(CCC(O)c1ccccc1)(c1ccccc1)c1ccccc1 (stereo not drawn)
inactive: [1] 93 % of control | [2] 106 % of control | [3] 100 % of control

COc1ccc2c(c1O)C13CCN(C)C(C2)C1CCC(O)C3 (stereo not drawn)
inactive: [9] 95 % of control | [4] 104 % of control | [10] 101 % of control | [5] 88 % of control | dose: 400.0 mg/kg/injection, schedule: Q01DX009 (ip), vehicle: Klucel (hydroxypropylcellulose) (HPC) 98 % of control | [11] 86 % of control

CC1(C)N=C(N)N=C(N)N1c1cccc(CCCCC(=O)CCl)c1
inactive: [12] 109 % of control | [13] 102 % of control | dose: 50.0 mg/kg/injection, schedule: Q04DX003 (ip), vehicle: saline 110 % of control

Clc1ccc(C2=NC3=CC(Cl)C=CC3=CC2C2CO2)cc1 (stereo not drawn)
inactive: [9] 96 % of control | [4] 94 % of control | [10] 98 % of control | [5] 94 % of control | [11] 98 % of control

On1ccc(N2CCOCC2)cc1=Nc1ccccc1
inactive: [14] 96 % of control

Cc1ccc(O)c(S(=O)(=O)F)c1
inactive: [4] 104 % of control | [5] 102 % of control | [11] 102 % of control

CC(C)CCCBr
inactive: [15] 101 % of control | [6] 94 % of control | [16] 100 % of control | [7] 95 % of control | dose: 400.0 mg/kg/injection, schedule: Q01DX009 (ip), vehicle: saline with Tween-80 94 % of control | [8] 99 % of control

O=[N+]([O-])c1ccc(S(=O)(=O)c2ccccc2)c([N+](=O)[O-])c1
inactive: dose: 6.0 mg/kg/injection, schedule: Q01DX001 (ip), vehicle: saline 93 % of control | dose: 12.0 mg/kg/injection, schedule: Q01DX001 (ip), vehicle: saline 100 % of control | dose: 25.0 mg/kg/injection, schedule: Q01DX001 (ip), vehicle: saline 91 % of control | [17] 100 % of control and 105 % of control | [18] 95 % of control

NC(CSS(=O)(=O)O)=NCCCCCN=C(N)CSS(=O)(=O)O
inactive: dose: 12.5 mg/kg/injection, schedule: Q04DX003 (ip), vehicle: saline with Tween-80 108 % of control | dose: 25.0 mg/kg/injection, schedule: Q04DX003 (ip), vehicle: saline with Tween-80 102 % of control | dose: 50.0 mg/kg/injection, schedule: Q04DX003 (ip), vehicle: saline with Tween-80 96 % of control

CC(=O)N(N=O)c1cc(Cl)ccc1Cl
inactive: [17] 113 % of control | [14] 110 % of control | [18] 101 % of control | [19] 107 % of control

CC(C(=O)c1ccccc1)C(O)(C(F)(F)F)C(F)(F)F (stereo not drawn)
inactive: [6] 97 % of control | [7] 97 % of control | [8] 99 % of control

CN(C)CCCC1c2ccccc2Oc2ccc(C(F)(F)F)cc21 (stereo not drawn)
inactive: dose: 0.78 mg/kg/injection, schedule: Q04DX003 (ip), vehicle: saline 103 % of control | dose: 1.56 mg/kg/injection, schedule: Q04DX003 (ip), vehicle: saline 102 % of control | dose: 3.12 mg/kg/injection, schedule: Q04DX003 (ip), vehicle: saline 105 % of control | dose: 6.25 mg/kg/injection, schedule: Q04DX003 (ip), vehicle: saline 105 % of control | [12] 102 % of control | [13] 117 % of control | [20] 100 % of control

Nc1nc(=S)[nH]c2nsnc12
inactive: [6] 98 % of control | [7] 96 % of control | [8] 103 % of control

CCC(CC)(Cc1ccccc1)C(=O)NC(=O)NO
inactive: dose: 25.0 mg/kg/injection, schedule: Q01DX Z (ip), vehicle: methylcellulose (MC) 98 % of control | dose: 50.0 mg/kg/injection, schedule: Q01DX Z (ip), vehicle: methylcellulose (MC) 101 % of control | dose: 100.0 mg/kg/injection, schedule: Q01DX Z (ip), vehicle: methylcellulose (MC) 98 % of control

CN(C)C=Nc1c(I)cc(I)c(CCC(=O)O)c1I
inactive: [14] 96 % of control | [18] 96 % of control | [19] 94 % of control

CC(C)(O)C#N
inactive: dose: 5.0 mg/kg/injection, schedule: Q01DX001 (ip), vehicle: saline 108 % of control | dose: 10.0 mg/kg/injection, schedule: Q01DX001 (ip), vehicle: saline 102 % of control | dose: 15.0 mg/kg/injection, schedule: Q01DX001 (ip), vehicle: saline 104 % of control

N#CC1C(=O)NC(c2ccccc2)=CC1c1ccccc1 (stereo not drawn)
inactive: [14] 100 % of control | [18] 94 % of control | [19] 94 % of control

C[C@@H]1C[C@H]2[C@@H]3CCC4=CC(=O)C=C[C@]4(C)[C@@]3(F)[C@@H](O)C[C@]2(C)[C@@]1(O)C(=O)CO
inactive: dose: 3.12 mg/kg/injection, schedule: Q01DX009 (ip), vehicle: Klucel (hydroxypropylcellulose) (HPC) 102 % of control | dose: 6.25 mg/kg/injection, schedule: Q01DX009 (ip), vehicle: Klucel (hydroxypropylcellulose) (HPC) 95 % of control | dose: 10.0 mg/kg/injection, schedule: Q01DX Z (sc), vehicle: steriod suspending solution 112 % of control | dose: 12.5 mg/kg/injection, schedule: Q01DX009 (ip), vehicle: Klucel (hydroxypropylcellulose) (HPC) 98 % of control | dose: 12.5 mg/kg/injection, schedule: Q01DX009 (ip), vehicle: saline 111 % of control | dose: 25.0 mg/kg/injection, schedule: Q01DX009 (ip), vehicle: Klucel (hydroxypropylcellulose) (HPC) 96 % of control | dose: 25.0 mg/kg/injection, schedule: Q01DX009 (ip), vehicle: saline sonified 99 % of control | dose: 25.0 mg/kg/injection, schedule: Q01DX009 (ip), vehicle: saline 96 % of control | dose: 25.0 mg/kg/injection, schedule: Q01DX Z (sc), vehicle: steriod suspending solution 112 % of control | dose: 37.5 mg/kg/injection, schedule: Q04DX003 (ip), vehicle: saline with Tween-80 93 % of control | dose: 50.0 mg/kg/injection, schedule: Q01DX009 (ip), vehicle: Klucel (hydroxypropylcellulose) (HPC) 91 % of control | dose: 50.0 mg/kg/injection, schedule: Q01DX009 (ip), vehicle: saline sonified 99 % of control | [20] 107 % of control | dose: 50.0 mg/kg/injection, schedule: Q01DX Z (sc), vehicle: steriod suspending solution 110 % of control | dose: 75.0 mg/kg/injection, schedule: Q04DX003 (ip), vehicle: saline with Tween-80 95 % of control | [9] 91 % of control | dose: 100.0 mg/kg/injection, schedule: Q01DX009 (ip), vehicle: saline sonified 106 % of control | [4] 102 % of control

CC(C)OC(=S)SC(C(=O)c1ccccc1)c1ccccc1 (stereo not drawn)
inactive: dose: 100.0 mg/kg/injection, schedule: Q04DX002 (ip), vehicle: Klucel (hydroxypropylcellulose) (HPC) 91 % of control | dose: 200.0 mg/kg/injection, schedule: Q04DX002 (ip), vehicle: Klucel (hydroxypropylcellulose) (HPC) 91 % of control | dose: 400.0 mg/kg/injection, schedule: Q04DX002 (ip), vehicle: Klucel (hydroxypropylcellulose) (HPC) 91 % of control

CCOC(=O)c1cc(Br)cc(Br)c1N=NN(C)C
inactive: dose: 50.0 mg/kg/injection, schedule: Q01DX009 (ip), vehicle: saline with Tween-80 105 % of control | [15] 113 % of control | [16] 105 % of control
